Data from ChEMBL document CHEMBL1201862, “PubChem BioAssay data set” (2004).
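Method: 48-hour compound exposure of cells in 96-well plates, five concentrations, linear interpolation of endpoints. GI50 is the concentration that inhibits growth by half.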 Calls of active or inactive are those of the source. Rule as the data show it: active = GI50 up to about 1.1 µM and inactive = higher.

Tests used:
Experiment in all cases: NCI-60 cell line screen, 48 h
NCI-H23 = system: NCI-H23
NCI-H522 = system: NCI-H522
HL-60 = system: HL-60
DU-145 = system: DU-145
MDA-MB-231 = system: MDA-MB-231
MDA-N = system: MDA-N
OVCAR-5 = system: OVCAR-5
HT-29 = system: HT-29
MDA-MB-435 = system: MDA-MB-435
OVCAR-8 = system: OVCAR-8
HCT-15 = system: HCT-15
UACC-62 = system: UACC-62
SK-MEL-2 = system: SK-MEL-2
BT-549 = system: BT-549
HCC 2998 = system: HCC 2998
U-251 = system: U-251
786-0 = system: 786-0
OVCAR-3 = system: OVCAR-3
HOP-62 = system: HOP-62
A498 = system: A498

Compound	GI50 (NCI-H23)	GI50 (NCI-H522)	GI50 (HL-60)	GI50 (DU-145)	GI50 (MDA-MB-231)	GI50 (MDA-N)	GI50 (OVCAR-5)	GI50 (HT-29)	GI50 (MDA-MB-435)	GI50 (OVCAR-8)	GI50 (HCT-15) [µM]	GI50 (UACC-62)	GI50 (SK-MEL-2)	GI50 (BT-549)	GI50 (HCC 2998)	GI50 (U-251)	GI50 (786-0)	GI50 (OVCAR-3)	GI50 (HOP-62)	GI50 (A498)
O=C(CCCCCNC(=O)c1ccc(Cl)cc1)NO	5.97 µM (inactive)	2.19 µM (inactive)	3.77 µM (inactive)	4.17 µM (inactive)	3.61 µM (inactive)	2.96 µM (inactive)	1.64 µM (inactive)	2.98 µM (inactive)	3.11 µM (inactive)	3.41 µM (inactive)	15.3	3.03 µM (inactive)	2.33 µM (inactive)	21.9 µM (inactive)	4.5 µM (inactive)	5.04 µM (inactive)	7.03 µM (inactive)	2.55 µM (inactive)		
CCCCCCCCCCCCCCCCCCNc1ccn(C2OC(CO)C(OP(=O)(O)OCC3CCC(n4ccc(N)nc4=O)O3)C2O)c(=O)n1 (configuration not stated)	> 100 µM (inactive)	28.6 µM (inactive)	17.1 µM (inactive)	> 100 µM (inactive)	> 100 µM (inactive)	> 100 µM (inactive)	57.7 µM (inactive)	42.5 µM (inactive)	> 100 µM (inactive)	> 100 µM (inactive)	40.3	> 100 µM (inactive)	> 100 µM (inactive)	30.8 µM (inactive)		> 100 µM (inactive)	> 100 µM (inactive)	> 100 µM (inactive)	> 100 µM (inactive)	
Cc1ccc(-c2c(C#N)c(-c3ccccc3)n(NS(=O)(=O)c3ccccc3)c(=O)c2C#N)cc1		88.1 µM (inactive)			> 100 µM (inactive)	92.7 µM (inactive)	> 100 µM (inactive)	> 100 µM (inactive)	99.8 µM (inactive)	> 100 µM (inactive)	60	95.5 µM (inactive)	> 100 µM (inactive)	64 µM (inactive)	47.3 µM (inactive)	81.7 µM (inactive)	> 100 µM (inactive)		64.7 µM (inactive)	> 100 µM (inactive)
Cc1cc(C)c2c(c1)C/C(=C\c1cccc(C)c1C(=O)O)C2=O	63.2 µM (inactive)	30.8 µM (inactive)	> 100 µM (inactive)	52.2 µM (inactive)	36.1 µM (inactive)	35.3 µM (inactive)	99.5 µM (inactive)	72.6 µM (inactive)		52.7 µM (inactive)	49.5	47.8 µM (inactive)	89.9 µM (inactive)	42.9 µM (inactive)	66.5 µM (inactive)		57.3 µM (inactive)	54.5 µM (inactive)	55 µM (inactive)	63.1 µM (inactive)
NC(=S)N1N=C(c2ccccc2O)CC1c1ccccc1 (configuration not stated)	18.5 µM (inactive)	3.99 µM (inactive)	3.69 µM (inactive)	27 µM (inactive)		2.83 µM (inactive)	17.9 µM (inactive)	11 µM (inactive)	3.02 µM (inactive)	25.5 µM (inactive)	5.62	11.6 µM (inactive)	5.25 µM (inactive)	20.8 µM (inactive)	11.6 µM (inactive)	16.8 µM (inactive)	21.1 µM (inactive)	10.5 µM (inactive)	4.95 µM (inactive)	11.9 µM (inactive)
CC(C)CC(=O)NC(NC(C)C)(C(F)(F)F)C(F)(F)F		> 100 µM (inactive)	60.5 µM (inactive)	> 100 µM (inactive)	> 100 µM (inactive)	> 100 µM (inactive)		> 100 µM (inactive)	> 100 µM (inactive)	> 100 µM (inactive)	> 100	> 100 µM (inactive)	> 100 µM (inactive)	> 100 µM (inactive)	> 100 µM (inactive)	> 100 µM (inactive)	> 100 µM (inactive)		> 100 µM (inactive)	
COc1ccc(/N=C2\C(=N/c3ccc(OC)cc3)N(c3ccccc3[N+](=O)[O-])C(=S)N2c2ccc(OC)cc2)cc1	> 100 µM (inactive)	96.4 µM (inactive)		> 100 µM (inactive)	7.78 µM (inactive)	49.8 µM (inactive)	> 100 µM (inactive)		> 100 µM (inactive)	> 100 µM (inactive)	> 100	78.9 µM (inactive)	> 100 µM (inactive)	34.4 µM (inactive)	> 100 µM (inactive)	> 100 µM (inactive)	> 100 µM (inactive)	> 100 µM (inactive)	71.3 µM (inactive)	
O=C(OCC(Cl)(Cl)Cl)N1CC[C@H](C2CCCCC2)C1	15.3 µM (inactive)	17.1 µM (inactive)		15.8 µM (inactive)	35.5 µM (inactive)	34.9 µM (inactive)	18.9 µM (inactive)				18.2	22.1 µM (inactive)	15.8 µM (inactive)	24.2 µM (inactive)	18.5 µM (inactive)	1.09 µM (active)	16.7 µM (inactive)	16.6 µM (inactive)	18.3 µM (inactive)	
Cc1cc(Cc2c(F)c(F)c(Cc3cc(C)no3)c(F)c2F)on1	65.8 µM (inactive)	> 100 µM (inactive)	> 100 µM (inactive)	> 100 µM (inactive)	46.6 µM (inactive)	> 100 µM (inactive)	> 100 µM (inactive)	> 100 µM (inactive)	> 100 µM (inactive)	83.9 µM (inactive)	> 100	> 100 µM (inactive)	32.7 µM (inactive)	> 100 µM (inactive)		64.1 µM (inactive)	38.8 µM (inactive)	> 100 µM (inactive)	25.4 µM (inactive)	> 100 µM (inactive)
Cc1noc(NS(=O)(=O)c2ccc(NC(=O)c3ccc4[nH]c5ccccc5c(=O)c4c3)cc2)c1C	93.3 µM (inactive)	26.4 µM (inactive)	27.4 µM (inactive)	> 100 µM (inactive)	45.9 µM (inactive)	57.8 µM (inactive)	> 100 µM (inactive)	39.3 µM (inactive)	35.6 µM (inactive)	32.2 µM (inactive)	> 100	49.5 µM (inactive)	32.1 µM (inactive)	33.3 µM (inactive)	22.3 µM (inactive)	27.4 µM (inactive)	46.2 µM (inactive)	23.6 µM (inactive)	50.1 µM (inactive)	
COc1cccc(/N=N/C(=NNC(=O)c2ccc(C)cc2)c2ccc(N(C)C)cc2)c1	> 100 µM (inactive)	> 100 µM (inactive)	> 100 µM (inactive)	> 100 µM (inactive)	> 100 µM (inactive)	39.7 µM (inactive)	> 100 µM (inactive)	> 100 µM (inactive)	21.1 µM (inactive)	> 100 µM (inactive)	> 100		> 100 µM (inactive)	> 100 µM (inactive)	> 100 µM (inactive)	> 100 µM (inactive)	> 100 µM (inactive)	65.2 µM (inactive)		
COc1cc2c(cc1Cl)[n+]([O-])c(C#N)c(N1CCN(c3ccc([N+](=O)[O-])cc3)CC1)[n+]2[O-]	17.1 µM (inactive)	5.7 µM (inactive)	51.2 µM (inactive)	13.8 µM (inactive)	41.8 µM (inactive)	24 µM (inactive)	67.8 µM (inactive)	36.9 µM (inactive)	19.5 µM (inactive)	7.28 µM (inactive)	11.1	11.6 µM (inactive)	49.3 µM (inactive)	15 µM (inactive)	19.1 µM (inactive)	7.78 µM (inactive)	12.7 µM (inactive)	52.6 µM (inactive)	8.34 µM (inactive)	
COc1cc2ccnc3c2c(c1O)N(C)C=C3	17.1 µM (inactive)	1.59 µM (inactive)		23.7 µM (inactive)	22.1 µM (inactive)	3.91 µM (inactive)	16.7 µM (inactive)		11.6 µM (inactive)	9.53 µM (inactive)	15	9.93 µM (inactive)	17.7 µM (inactive)	9.08 µM (inactive)	23 µM (inactive)	24.9 µM (inactive)	7.19 µM (inactive)	4.62 µM (inactive)	22 µM (inactive)	15.9 µM (inactive)
O=C1C(O)=C(C(C2=C(O)C(=O)c3ccccc3C2=O)c2ccc(Cl)cc2)C(=O)c2ccccc21	4.85 µM (inactive)	8.95 µM (inactive)	1.66 µM (inactive)	5.42 µM (inactive)	3.15 µM (inactive)	1.83 µM (inactive)	7.93 µM (inactive)	7.87 µM (inactive)	1.83 µM (inactive)	8.75 µM (inactive)	9.12	9.75 µM (inactive)	8.36 µM (inactive)	15.6 µM (inactive)		6.24 µM (inactive)	3.33 µM (inactive)	4.93 µM (inactive)	6.47 µM (inactive)	18.4 µM (inactive)
COc1cc(O)c(C(=O)/C=C/c2ccc(O)cc2)cc1Oc1ccc(/C=C/C(=O)c2ccc(O)cc2O)cc1 [RHUSCHALCONE III]	11.1 µM (inactive)	7.41 µM (inactive)	10.4 µM (inactive)	10.2 µM (inactive)	15 µM (inactive)	8.93 µM (inactive)	13.7 µM (inactive)	7.57 µM (inactive)	8.77 µM (inactive)	9.02 µM (inactive)	8.85	8.61 µM (inactive)	10.1 µM (inactive)	8.79 µM (inactive)		7.98 µM (inactive)	8.73 µM (inactive)	8.07 µM (inactive)	10.8 µM (inactive)	6.93 µM (inactive)
